From PubChem BioAssay (NCI)
Where “and” joins values, the source holds several entries; their conditions need not be identical. Identical values can stand only once.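 Cultured in 96-well plates, cells were exposed to test compound for 48 hours across five concentrations. GI50: concentration for 50% inhibition of growth. At the TGI there is no net growth.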

How the values were obtained:
Experiment in all cases: growth of human tumour cells (NCI), 48 h
[1] = test system: ACHN renal
[2] = test system: IGROV1 ovarian
[3] = test system: K-562 leukemia
[4] = test system: OVCAR-8 ovarian
[5] = test system: RPMI-8226 leukemia
[6] = test system: SF-539 CNS
[7] = test system: SK-MEL-28 melanoma
[8] = test system: SW-620 colon
[9] = test system: HCC-2998 colon
[10] = test system: NCI/ADR-RES ovarian

| Structure (SMILES) | TGI [1] [µM] | TGI [2] [µM] | TGI [3] [µM] | TGI [4] | TGI [5] | TGI [6] | TGI [7] | TGI [8] [µM] | GI50 [1] [µM] | GI50 [9] | TGI [9] | GI50 [2] | GI50 [10] | TGI [10] | GI50 [4] | GI50 [6] | GI50 [7] | GI50 [8] | GI50 [5] | GI50 [3] [µM] |
| --- | --- | --- | --- | --- | --- | --- | --- | --- | --- | --- | --- | --- | --- | --- | --- | --- | --- | --- | --- | --- |
| C=CCNC(=O)N(CCCC(NC(C)=O)C(=O)NCc1ccccc1)Cc1ccccc1 (stereo unspecified) | > 100 | > 100 | > 100 | > 100 µM | > 100 µM | > 100 µM | > 100 µM | > 100 |  |  |  |  |  |  |  |  |  |  |  |  |
| Cc1cc(C(=C2C=CC(=Nc3ccccc3)C=C2)c2ccc(Nc3ccccc3)cc2)ccc1N | 1.31 | 1.34 |  | 0.913 µM |  | 1.16 µM | 1.4 µM | 1.05 | 0.377 | 0.211 µM | 0.452 µM | 0.389 µM | 0.643 µM | 2.22 µM | 0.254 µM | 0.328 µM | 0.368 µM | 0.29 µM |  |  |
| O=C(N/C(=C/c1ccc(Cl)cc1Cl)c1nc2ccccc2s1)c1ccccc1 | 19.5 | 26.2 | > 100 | 47.4 µM | > 100 µM | 31.1 µM | 34.2 µM | 24.6 |  |  |  |  |  | 39.5 µM |  |  |  |  |  |  |
| O=C(NC(=O)c1cn(CCN(CCO)C(=O)NCCCCCCNC(=O)N(CCO)CCn2cc(C(=O)NC(=O)OCc3ccccc3)c(=O)[nH]c2=O)c(=O)[nH]c1=O)OCc1ccccc1 | > 100 | > 100 | > 100 | > 100 µM | > 100 µM | > 100 µM | > 100 µM | > 100 |  |  |  |  |  |  |  |  |  |  |  |  |
| COc1ccc2c(c1)nnn1c3ncccc3c(N=O)c21 | > 100 |  |  | 21.4 µM and 3.73 µM | 1.44 µM and 7.64 µM | 1.24 µM and 3.18 µM | 13.6 µM and 74.4 µM |  | 0.374 | 7.23 µM and 1.24 µM | 15.6 µM and 2.79 µM | 0.114 µM and 1.09 µM | 1.42 µM and 1.28 µM | 10.6 µM and 12.6 µM | 0.389 µM and 0.517 µM | 0.467 µM and 1.51 µM | 3.48 µM and 11.4 µM | 0.27 µM and 1.34 µM | 0.261 µM and 1.08 µM |  |
| O=c1c2ccccc2c(=O)n2n1CC=CC2 | > 100 | > 100 | > 100 | > 100 µM | > 100 µM | > 100 µM | > 100 µM | > 100 |  |  | > 100 µM |  |  |  |  |  |  |  |  |  |
| COc1ccc2c(c1)[n+]([O-])c(-c1ccc(OC)c(OC)c1)c(N)[n+]2[O-] | > 100 | > 100 | > 100 | > 100 µM | > 100 µM | > 100 µM | 69.4 µM | > 100 |  |  | > 100 µM |  |  |  |  |  |  |  |  |  |
| CCN(CC)CCOc1ccc(CCc2cc(OC)c(OC)c(OC)c2)cc1 | > 100 | > 100 | > 100 | > 100 µM | 51.5 µM | > 100 µM | > 100 µM | 46.8 |  |  |  |  |  |  |  |  |  |  |  |  |
| O=C(CC(=O)C1=CNc2ccccc2S1)C(=O)Nc1ccc(Cl)cc1 | > 50 | > 50 | > 50 | > 50 µM | > 50 µM | > 50 µM | > 50 µM | > 50 |  |  | > 50 µM |  |  |  |  |  |  |  |  |  |
| CN1CCN(CCOc2ccc(-c3cnc4c(-c5ccc(C(F)(F)F)cc5)cnn4c3)cc2)CC1 | 2.91 | 3.06 |  | 3.46 µM |  | 3.04 µM | 3.11 µM | 3.27 | 1.57 | 1.67 µM | 3.34 µM | 1.55 µM |  |  | 1.75 µM | 1.64 µM | 1.68 µM | 1.76 µM |  |  |
| COC1OC(CBr)C(OC(=O)c2ccccc2)C(O)C1Br (stereo unspecified) |  | > 10 | > 100 | > 100 µM | > 100 µM | > 100 µM | > 100 µM | > 100 |  |  | > 100 µM |  |  |  |  |  |  |  |  |  |
| C1COCCN1.C1COCCN1.NC1CCCCC1N.[Cl-].[Pt+2] (stereo unspecified) | > 100 | > 100 | > 100 | > 100 µM | > 100 µM | > 100 µM | > 100 µM | > 100 | > 100 | > 100 µM | > 100 µM | > 100 µM |  |  | > 100 µM | > 100 µM | > 100 µM | > 100 µM | > 100 µM | > 100 |
| O=c1oc(Cl)c(Cl)c2ccccc12 | 39.7 | 63.2 | 70.5 | > 100 µM |  | 38.5 µM | > 100 µM | 56.3 | 16.1 | 44.3 µM | 73.9 µM | 23.2 µM | 18.1 µM | 41.3 µM | 47.8 µM | 17 µM | 46.5 µM | 19.7 µM |  | 27.2 |
| CCn1cc(C(=O)N/N=C/c2ccccc2)c(=O)c2cc(F)c(N3CCNC(C)C3)c(F)c21 (stereo unspecified) | 3.12 | 3.2 |  |  |  | 3.11 µM | 3.19 µM | 3.31 | 1.73 | 1.8 µM | 3.32 µM | 1.71 µM | 1.76 µM | 3.46 µM |  | 1.7 µM | 1.78 µM | 1.76 µM |  |  |
| O=C1C2C3C=C4c5ccccc5N(c5ccccc5)C4(C2C(=O)N1c1ccc(Cl)cc1)[C@H]1C(=O)N(c2ccc(Cl)cc2)C(=O)[C@@H]31 (stereo partly specified) |  | > 100 | > 100 | > 100 µM | > 100 µM | > 100 µM |  | > 100 |  |  |  |  |  |  |  |  |  |  |  |  |
| CC(=O)NNc1nc(C)c(C(=O)/C=C/c2ccccc2Cl)s1 | > 100 | > 100 | > 100 | > 100 µM | > 100 µM | > 100 µM | > 100 µM | > 100 |  |  | > 100 µM |  |  |  |  |  |  |  |  |  |
| N.N.N.N.N.[Cl-].[Co+3].c1ccc(-c2nn[n-]n2)cc1 | > 100 | > 100 | > 100 | > 100 µM | > 100 µM | > 100 µM | > 100 µM | > 100 | > 100 | > 100 µM | > 100 µM | > 100 µM |  |  | > 100 µM | > 100 µM | > 100 µM | > 100 µM | > 100 µM | > 100 |
| O=[N+]([O-])c1ccc2c(c1)Cc1cc(N=Cc3ccc4c(c3)OCO4)ccc1-2 | > 100 | > 100 | > 100 | > 100 µM | > 100 µM | > 100 µM | > 100 µM | > 100 |  |  |  |  |  | > 100 µM |  |  |  |  |  |  |
